Legend:
Format in all cases: in vivo, mouse
[1] = test system: hippocampal CA3-CA1 pathway of 3×TG+/− mice; assay: Long-term potentiation recording in hippocampal slices from treated 3×TG+/− mice; conditions: brain slices from 12-15 months old 3×TG+/− mice, 3.2 mg/kg/day for one month; vs DMSO
Procedure: Schaffer collateral fibers were stimulated at the CA3 subfield to record field excitatory postsynaptic potentials (fEPSPs) in the CA1 stratum radiatum of transverse hippocampal slices ([…]) from all genotypes and drug-treated mice at different ages. After recovering at room temperature for 1 h (or 2 h for brain slices from drug-treated mice), hippocampal slices were allowed to recover in the recording chamber for additional 10 min. To evaluate basal synaptic transmission, different stimulation strengths (0 μA to 200 μA in steps of 20 μA) were applied and plotted fEPSP slopes versus the current input to compare the slope of input/output (I/O) curves of fEPSP. In the experiments that followed, stimulus current was adjusted so that fEPSP stabilized at 40-50% of maximum. Baseline was recorded for at least […] until the differences among fEPSP slopes were within 10%. Long-term potentiation (LTP) was induced using a tetanic high-frequency stimulation (HFS; 4 trains of 100 pulses at 100 Hz, with 20-sec intervals). Synaptic responses were recorded for at least 60 min after tetanization and quantified as the slope of the evoked fEPSP as percentage of the baseline.

5×FAD+/− mice = assay: Learning and memory tests (Morris water maze, novel object recognition) in 5×FAD+/− mice; conditions: for learning and memory impairments (MWM, NOR): 4-6 months old 5×FAD mice
Procedure: (§1) Adult genetically engineered mice, 5×FAD^+/− (Oakley et al., 2006), RyR2-E4872Q^+/− (EQ^+/−) (Chen et al., 2014), 5×FAD^+/−/RyR2-E4872Q^+/− (5×FAD^+/−/EQ^+/−), and wildtype (WT) littermates of both sexes were used. R-carvedilol (R-CV) (at doses of 0.8, 1.6 or 3.2 mg/kg/day), racemic carvedilol (3.2 mg/kg/day), and vehicle control (DMSO) were delivered to 5×FAD^+/− mice in drinking water for one month, starting at different ages before (2-3 months old) or after (3-4 months old) the occurrence of AD pathologies (Oakley et al., 2006). To assess the effects of genetically and pharmacologically limiting RyR2 open time on the prevention and rescue of AD deficits in different stages (early, moderate, and late) of AD progression, animals at different ages (from 2-15 months) were used. As reported (Oakley et al., 2006), there was an age-dependence of AD progression in the 5×FAD^+/− mice. No sex-dependent differences in AD progression in these mice was observed. For 2-photon Ca^2+ imaging experiments, 5×FAD, RyR2 WT, and RyR2 mutant mice were cross-bred with the heterozygous Thy1-GCaMP6f transgenic mice (Chen et al., 2012; Chen et al., 2013) (GP5.17, JAX 025393) to express the GCaMP6f Ca^2+ sensing probe (driven by the Thy1 promotor) in hippocampal neurons in each of the genotypes used.
The learning and memory of mice with all genotypes were evaluated using the Morris water maze (MWM) test, the Barnes maze (BM) test, and/or the novel object recognition (NOR) test. Experiments were carried out blindly. For the MWM test, mice at different ages were trained to localize a hidden escape platform (10×10 cm) in a circular pool (116.84 cm in diameter, 50 cm in depth) (San Diego Instruments, CA) via distal visual cue. The platform was submerged 1-2 cm beneath the surface in water (22-24°C.), which was rendered opaque by addition of milk powder. The localization of the pool in relation to visual cues was maintained constantly during the entire task. The cues were distinct in color and shape. Digital division of the tracking area (pool) into four quadrants was performed by the SMART video tracking system, Smart 3.0 (Panlab Harvard Apparatus; Barcelona Spain). The escape platform was placed in the centre of the south-west quadrant for the entirety of the learning phase (4 training days) and digitally defined as target. Spatial training consisted of 4 days with 5 trials per mouse per day. Mice were released with their heads facing the pool wall at one of four entry locations (north, east, south and west) in a non-repetitive random order. Swimming was automatically video-tracked until the subject found the escape platform and remained on it (≥5 sec), or until a maximum of 60 seconds. […] In between trials (inter-trial interval ≥10 min), mice were housed in heated cages to avoid performance deficits due to exhaustion or hypothermia. The latency and swimming speed to reach the escape platform were recorded for comparison. After the learning phase, memory retention was evaluated by one probe trial 24 hours after the last training session. The escape platform was removed before mice were released from the north entry point into the pool. Their swimming was video-tracked for 60 seconds. The area at the location of the removed hidden platform was defined as the target and the south-west quadrant the target quadrant. The percentage of time mice spent in the target quadrant (including the target) were measured for comparison.
For the NOR test, mice were habituated for 10 min per mouse in an equally illuminated, odor-free, white, plastic box (40×40×50 cm^3) embedded with fresh aspen shavings and shreds. In between each mouse trial the box was wiped with ethanol to avoid odor-induced stress. 24 hours after habituation, two identical objects ware placed at equal distance to each other and the corners of the box. Each mouse was placed into the center, and allowed to move freely for 10 min. Mice were video recorded during this familiarizing phase. […]

[2] = test system: subiculum pyramidal neurons of 5×FAD+/− mice; assay: Nissl staining, neuronal cell loss in 5×FAD+/− mice; conditions: 6-7 months old 5×FAD+/− mice, pre-treatment 3.2 mg/kg/day for 1 month; vs DMSO
Procedure: as §1, with “genotypes used. […]” for “genotypes used.”

COc1ccccc1OCCNC[C@@H](O)COc1cccc2[nH]c3ccccc3c12 [R-carvedilol, R-(+)-carvedilol]
hippocampal LTP (potentiation of fEPSP slope) [1]: significantly enhanced
learning and memory impairments (MWM, NOR) (5×FAD+/− mice; 1.6 mg/kg/day for one month, vs DMSO): rescued
memory loss / learning and memory deficits (MWM, NOR) (5×FAD+/− mice; 3.2 mg/kg/day for one month started at 2-3 months of age (before AD symptoms), tested at 3-4 months, vs DMSO): prevented
memory loss (MWM, NOR) (5×FAD+/− mice; 3.2 mg/kg/day for one month started at 3-4 months of age (after AD symptom), tested at 4-5 months, vs DMSO): rescued
learning and memory impairments (MWM, NOR) (5×FAD+/− mice; 3.2 mg/kg/day for one month, vs DMSO): rescued
beneficial effect on learning and memory, dependence on dose (5×FAD+/− mice; 0.8, 1.6, 3.2 mg/kg/day for one month, 5×FAD mice): dose-dependent
memory deficits (MWM, NOR) (5×FAD+/− mice; 6-7 and 10-12 months old 5×FAD+/− mice (late stages of AD), 3.2 mg/kg/day for 1 month, vs DMSO): rescued
subiculum neuronal cell loss [2]: protected against
